One test deals with HeLa cells. The experiment in a line: MTS cell proliferation assay in asynchronously growing HeLa cells. Type of test: cell-based, human. As to conditions: treated 2 days.
A further test concerns Plk1. The settings on record: read-out: IC50 against Plk1; cited from earlier work.

pIC50: −log10 of the molar value.

With PLHST, in the test on HeLa cells, the “inhibition of cell proliferation (MTS)” value is “failed to show any detectable level of cell cytotoxicity”.
As for PLH*SpT, in the test with Plk1, the pIC50 (in general, −log10 of the IC50, conventionally taken in molar units) is 7.77.

Values taken from PMC10411393 (Journal of medicinal chemistry, 2022).
